# Molecular target: T1, BSP30b (Bovine Salivary Protein 30b) (Bos taurus, UniProt P79125)
# T1 construct: gene SPLUNC2B; E. coli BL21, pProEx Htb (BamHI/XhoI), HiTrap Ni, MONO Q and SEC purified; synthetic F61M/F115M double mutant; model covers about residues 40-235
# T1 sequence (P79125 20-240): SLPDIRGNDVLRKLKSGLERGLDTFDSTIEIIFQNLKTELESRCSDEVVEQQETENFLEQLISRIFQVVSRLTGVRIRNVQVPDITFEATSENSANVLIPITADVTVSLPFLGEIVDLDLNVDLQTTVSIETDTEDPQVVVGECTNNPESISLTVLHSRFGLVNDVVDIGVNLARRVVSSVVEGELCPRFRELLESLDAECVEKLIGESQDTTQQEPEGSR
# Experiment: X-ray co-crystal structure, […] Å
# Format: binding
# Details: co-crystallised at pH 7.5 after SEC removal of unbound ligand; in hydrophobic channel, about 80% occupancy in dominant site, weaker in second molecule of ASU; contacts ASP112 and ILE113
compound,measurement,value
CCCCCCCC/C=C\CCCCCCCC(=O)O [oleic acid],"X-ray co-crystal structure, 2.30 Å",The only structure that revealed elongated stretches of electron density within the hydrophobic tunnel

# Reference: paper PMC6461236, “The three dimensional structure of Bovine Salivary Protein 30b (BSP30b) and its interaction with specific rumen bacteria” (PLoS ONE, 2019)
